Measured values published in patent US20260232684A1, “FLT3 INHIBITORS AND METHODS OF USING THE SAME” (BIOVENTURES, LLC, priority 2023, published 2026).
“Also recorded” adds a separate entry of the source.

Key:
FLT3 = FLT3 (Homo sapiens, UniProt P36888); experiment: Enzyme kinetic analysis (5-FAM microfluidic assay), FLT3; type: biochemical; conditions: variable ATP and inhibitor concentrations
Protocol: FIG. 14. Enzyme kinetic analysis of compound 1 and 2 against FLT3 and FLT3 D835Y. The 5-FAM labeled microfluidic assay was utilized and all the activities were measured using Caliper EZ Reader II with a 12-sipper chip. In the presence of variable concentrations of compound 1 or 2, phosphorylation activities of FLT3 and FLT3 D835Y were measured at different level of ATP within certain time durations.
To further assess putative binding modes of compounds 1 and 2, enzyme kinetic analyses were performed.

Molm14 D835Y cells = experiment: Cell viability assay (CellTiter GLO), Molm14 D835Y; type: cell-based, human; conditions: 48 hours
Protocol: (§1) FIG. 1. […] Cells were treated with inhibitor at increasing log doses (0.1 nM-10 μM) for 48 hours. Cell viability was analyzed through CellTiter GLO. […] Cells were exposed to increasing amounts of each drug for 2 hours. GAPDH1 represents loading control for phospho-ERK and ERK blots. GAPDH2 represents loading control for phosphor-STAT5, STAT5, phospho-S6 and S6. Each experiment was completed in triplicate. Representative images are shown.
(§2) FIG. 5. […] Cells were dosed with inhibitor at increasing log doses (0.1 nM-10 μM) for 48 hours. Cell viability was analyzed through CellTiter GLO.
(§3) MV-4-11 and parental Molm-14 cells were a gift from Dr. Scott Kogan (University of California, San Francisco). HL60 and K562 cell lines were obtained from Charles Sawyers. […] Stable Ba/F3 lines were generated by retroviral infection as previously described (5). All cell lines were tested to be mycoplasma free and human cell lines were authenticated through STR profiling completed at the University of California, Berkeley.
(§4) Each triplicate was either dosed with drug or DMSO vehicle control. Drug dosing was completed at log doses ranging from 0.1 nM-10 μM. Cell viability was assessed after 48 hours using CellTiter GLO (Promega). Viability values were normalized to the vehicle control average. Numerical IC50 values were calculated in GraphPad Prism 7.

[1] = system: FLT3 signaling in Molm14 subcutaneous xenografts; experiment: In vivo target inhibition in Molm14 subcutaneous xenografts; set-up: species or system mice; conditions: for oral bioavailability and pharmacokinetic profile, in words: mice, oral gavage; for inhibition of target and downstream effectors at 4 hour and 8 hours: single dose by oral gavage, all doses, Western blot of tumors
From the text: FIG. 6. Assessment of in vivo target inhibition by compounds 1 and 2 in Molm14 subcutaneous xenografts. Western blot analysis of 1 and 2 in a Molm14 xenograft model.

[2] = system: K562 cells (non-FLT3 driven); experiment: Cell viability assay (CellTiter GLO), K562; type: cell-based, human; conditions: K562, 48 hours
Protocol: as §1, §3, §4

[3] = system: HL60 cells (non-FLT3 driven); experiment: Cell viability assay (CellTiter GLO), HL60; type: cell-based, human; conditions: HL60, 48 hours
Protocol: as §1, §3, §4

[4] = system: Molm14 cells (FLT3-ITD-expressing); experiment: Cell viability assay (CellTiter GLO), Molm14; type: cell-based, human; conditions: Molm14, 48 hours
Protocol: as §1, §2, §3, §4

[5] = system: FLT3 phosphorylation in Ba/F3 cells stably expressing FLT3-ITD in human plasma; experiment: Plasma inhibitory assay; type: cell-based; conditions: for inhibition of FLT3 in the presence of human plasma, in words: 120 minutes, same concentrations as comparators
Protocol: A pitfall of some prior FLT3 inhibitors has been poor pharmacokinetic profiles. The plasma inhibitory assay identifies one pharmacokinetic profile by evaluating the activity of drugs in the presence of human plasma proteins that can sequester inhibitors in clinical experience.
Plasma Inhibitory Assay was performed as previously described with modifications (40). Ba/F3 cells (7×10^6 cells) stably expressing FLT3-ITD were resuspended in 1 mL of RPMI 1640+10% FBS or human plasma from a healthy control. All samples were collected under the University of California, San Francisco institutional review board (IRB)-approved cell banking protocol (CC #112514). Informed consent was obtained in accordance with the Declaration of Helsinki. The appropriate amount of drug was added and incubated at 37° C. for 120 minutes. Following, cells were washed in PBS and lysed in HEPES lysis buffer supplemented with protease and phosphatase inhibitors and processed as previously described (40,41). Immunoblotting was performed using anti-phospho-FLT3 and anti-FLT3 antibody (Cell Signaling).

[6] = system: panel of 468 kinases and kinase mutants; experiment: KINOMEscan screening; type: binding; conditions: for number of kinases bound relative to gilteritinib: 20× the Molm14 IC50 concentration of each compound
[7] = system: MV-4-11 cells (FLT3-ITD-expressing); experiment: Cell viability assay (CellTiter GLO), MV-4-11; type: cell-based, human; conditions: MV-4-11, 48 hours
Protocol: as §1, §3, §4

[8] = system: FLT3 phosphorylation in parental Molm14 cells; experiment: Immunoblotting of phospho-FLT3 and downstream signaling, Molm14; type: cell-based, human; conditions: parental Molm14, 2 hours, Western blot
Protocol: (§5) FIG. 1. Activity of compounds 1 and 2 against parental Molm14 cells harboring secondary kinase domain mutations associated with clinical resistance to active FLT3 TKIs. […] Each point represents the calculated IC50 from an independent experiment completed in triplicate. Cells were treated with inhibitor at increasing log doses (0.1 nM-10 μM) for 48 hours. Cell viability was analyzed through CellTiter GLO. […] Cells were exposed to increasing amounts of each drug for 2 hours. GAPDH1 represents loading control for phospho-ERK and ERK blots. GAPDH2 represents loading control for phosphor-STAT5, STAT5, phospho-S6 and S6. Each experiment was completed in triplicate. Representative images are shown.
Exponentially growing Molm-14 or Ba/F3 cells were plated with RPMI 1640+10% (vol/vol) FBS with the indicated amount of drug. Following 120 minute incubation at 37° C., cells were washed in PBS and lysed in HEPES lysis buffer supplemented with protease and phosphatase inhibitors and processed as previously described (39). Immunoblotting was performed using anti-phospho-tyrosine 4G10 antibody (Millipore Sigma) and anti-FLT3 antibody (Cell Signaling Technology) following immunoprecipitation with anti-FLT3 antibody from 500 μg of total protein. […]

Molm14 F691L cells = experiment: Cell viability assay (CellTiter GLO), Molm14 F691L; type: cell-based, human; conditions: 48 hours
Protocol: as §1, §2, §3, §4

[9] = system: FLT3 phosphorylation in Molm14 F691L cells; experiment: Immunoblotting of phospho-FLT3 and downstream signaling, Molm14 F691L; type: cell-based, human; conditions: 2 hours, Western blot
Protocol: as §5
Exponentially growing Molm-14 or Ba/F3 cells were plated with RPMI 1640+10% (vol/vol) FBS with the indicated amount of drug. Following 120 minute incubation at 37° C., cells were washed in PBS and lysed in HEPES lysis buffer supplemented with protease and phosphatase inhibitors and processed as previously described (39). Immunoblotting was performed using anti-phospho-tyrosine 4G10 antibody (Millipore Sigma) and anti-FLT3 antibody (Cell Signaling Technology) following immunoprecipitation with anti-FLT3 antibody from 500 μg of total protein. Immunoblotting of ERK, STAT5, S6 and GAPDH was performed with anti-phospho-ERK, anti-ERK, anti-phospho-STAT5, anti-STAT5, anti-phospho-S6, anti-S6 and anti-GAPDH antibody (Cell Signaling Technology)

Sequence of FLT3 (P36888 27-993): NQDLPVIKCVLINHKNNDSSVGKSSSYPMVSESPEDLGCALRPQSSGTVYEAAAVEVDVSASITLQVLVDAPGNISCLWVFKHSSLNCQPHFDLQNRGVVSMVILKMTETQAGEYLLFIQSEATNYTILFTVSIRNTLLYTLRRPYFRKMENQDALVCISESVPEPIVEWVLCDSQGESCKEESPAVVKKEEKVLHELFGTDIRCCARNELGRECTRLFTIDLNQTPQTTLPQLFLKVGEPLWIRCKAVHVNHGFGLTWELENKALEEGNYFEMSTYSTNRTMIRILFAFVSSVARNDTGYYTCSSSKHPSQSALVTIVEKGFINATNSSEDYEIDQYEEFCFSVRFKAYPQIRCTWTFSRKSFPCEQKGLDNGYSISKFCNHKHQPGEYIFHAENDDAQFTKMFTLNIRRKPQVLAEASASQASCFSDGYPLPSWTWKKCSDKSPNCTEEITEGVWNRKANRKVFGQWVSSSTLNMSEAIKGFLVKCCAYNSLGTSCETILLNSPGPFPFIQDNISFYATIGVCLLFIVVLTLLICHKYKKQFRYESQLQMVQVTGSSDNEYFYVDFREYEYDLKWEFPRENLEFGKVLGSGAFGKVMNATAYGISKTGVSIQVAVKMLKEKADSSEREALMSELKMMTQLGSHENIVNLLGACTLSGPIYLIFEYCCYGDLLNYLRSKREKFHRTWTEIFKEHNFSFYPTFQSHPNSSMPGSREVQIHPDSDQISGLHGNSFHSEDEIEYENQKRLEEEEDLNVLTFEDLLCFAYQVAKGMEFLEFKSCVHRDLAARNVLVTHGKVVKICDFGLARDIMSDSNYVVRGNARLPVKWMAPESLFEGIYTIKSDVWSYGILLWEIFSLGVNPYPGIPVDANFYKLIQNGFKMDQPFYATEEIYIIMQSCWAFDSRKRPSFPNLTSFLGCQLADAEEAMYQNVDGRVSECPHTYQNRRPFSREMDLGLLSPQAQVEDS

| SMILES | binding mode / inhibitor type from enzyme kinetics (FLT3) | activity in cell viability assay (IC50, FIG. 1A/5B), in words (Molm14 D835Y cells) | oral bioavailability and pharmacokinetic profile, in words [1] | inhibition of target and downstream effectors at 4 hour and 8 hours [1] | activity in cell viability assay (IC50, FIG. 1A), in words [2] | activity in cell viability assay (IC50, FIG. 1A), in words [3] | activity in cell viability assay (IC50, FIG. 1A/5B), in words [4] | inhibition of FLT3 in the presence of human plasma, in words [5] | number of kinases bound relative to gilteritinib [6] | activity in cell viability assay (IC50, FIG. 1A), in words [7] | inhibition of FLT3 phosphorylation and downstream signaling, in words [8] | activity in cell viability assay (IC50, FIG. 1A/5B), in words (Molm14 F691L cells) | inhibition of FLT3 phosphorylation, in words [9] | further results |
| --- | --- | --- | --- | --- | --- | --- | --- | --- | --- | --- | --- | --- | --- | --- |
| CN(C)CCNc1ncc(F)c(-c2cnc3cc(-c4cnn(C)c4)ccn23)n1 [Compound 1] | type 1 inhibitor; also recorded: type 1 binding mode | retain activity | oral bioavailability and acceptable pharmacokinetic profiles | inhibition of target and downstream effectors at all doses | neither compound displayed any concerning toxicity | neither compound displayed any concerning toxicity | activity comparable to quizartinib and superior to gilteritinib | more potent inhibition of FLT3 in the presence of plasma compared to quizartinib and gilteritinib | bound to far fewer kinases than gilteritinib | activity comparable to quizartinib and superior to gilteritinib | low nanomolar concentrations were sufficient to inhibit phosphorylation of FLT3 | retain activity | decreased level of activity | target inhibition at 24 hours ([1]; single oral dose, 2 mg/kg and 10 mg/kg): sufficient for retaining target inhibition for 24 hours; impact of the presence of plasma on activity ([5]; human plasma vs RPMI 1640+10% FBS): almost no impact; selectivity profile, in words ([6]; 20× the Molm14 IC50 concentration): remarkable selectivity profile; six kinases bound with greatest affinity ([6]; KINOMEscan analysis): FLT3, IRAK4, PHGK1, PHGK2, CDK7, TRKA |
| CC(C)(C)c1cc(NC(=O)Cc2ccc(-c3cnc4cc(-c5cnn(CCN6CCOCC6)c5)ccc4n3)cc2)no1 [Compound 2, N-(5-(tert-butyl)isoxazol-3-yl)-2-(4-(6-(1-(2-morpholinoethyl)-1H-pyrazol-4-yl)quinoxalin-2-yl)phenyl) acetamide] | type 2 inhibitor; also recorded: type 2 binding mode | retain activity | oral bioavailability and acceptable pharmacokinetic profiles | inhibition of target and downstream effectors at all doses | neither compound displayed any concerning toxicity | neither compound displayed any concerning toxicity | activity comparable to quizartinib and superior to gilteritinib | more potent inhibition of FLT3 in the presence of plasma compared to quizartinib and gilteritinib | bound to far fewer kinases than gilteritinib | activity comparable to quizartinib and superior to gilteritinib | low nanomolar concentrations were sufficient to inhibit phosphorylation of FLT3 | retain activity | most potent of all the inhibitors evaluated | target inhibition at 24 hours ([1]; single oral dose, 10 mg/kg): sustained target inhibition; kinase signaling at 24 hours ([1]; single oral dose, lower doses): kinase signaling was restored; concentration with complete elimination of phosphorylation [9]: 50 nM; concentration with noticeable decrease in phosphorylation [9]: 10 nM |
